Measured values as given in patent US4091006A, “Esters of 3-hydroxyindone compounds” (priority 1975, dated 1978).

Legend:
[1] = test system: Perennial rye grass, crabgrass, red root pigweed, mustard; test: Preliminary Herbicide Seed Germination Test; details: each rated 1 (no injury) to 5 (no seedlings emerged)
[2] = test system: adults and nymphal stages of the two-spotted mite; test: Mite Foliage Spray Test; assay type: in vivo, Tetranychus urticae (Koch); design: key: 1: no mortality; 3: an approximately 50% mortality; 5: 100% mortality; details: 4 days
Description: (§1) The test procedures were as follows:
(§2) Compositions were rated on the basis of percent kill with a rating of 1 indicating no mortality; 3 signifying an approximately 50% mortality and 5 indicating 100% mortality at the indicated dosage.

[3] = test system: egg of the two-spotted mite; test: Mite Ovicide Test; assay type: in vivo, Tetranychus urticae (Koch); design: key to Mite Ova rating: 1: no mortality; 3: an approximately 50% mortality; 5: 100% mortality; details: for Mite Ova rating: spray on eggs, 4 days
Description: as §1
The plants were allowed to dry thoroughly.
as §2

[4] = rating/maximum 40: 100 and 1000 ppm, four species, 10-12 days
[5] = rating/maximum 15: 100 ppm only, crabgrass omitted
[6] = rating/maximum 20: 100 ppm only, four species
[7] = rating/maximum 30: 100 and 1000 ppm, crabgrass omitted

SMILES | Herbicide (total preemergence rating) [1, 4] | Mite Adult rating [2] | Mite Ova rating [3] | Herbicide (total preemergence rating) [1, 5] | Herbicide (total preemergence rating) [1, 6] | Mite ova kill ([3]; 500 ppm) | Herbicide (total preemergence rating) [1, 7]
Cc1cc(C)c(C2=C(OC(=O)c3ccc(Cl)cc3Cl)c3ccccc3C2=O)c(C)c1 [3-(2,4-Dichlorobenzoyloxy)-2-(2',4',6'-trimethylphenyl)indone] | 32/40 | 5 (100% mortality) | 5 (100% mortality) | – | – | – | –
O=C(OC1=C(c2c(Cl)cccc2Cl)C(=O)c2ccccc21)c1ccc(Cl)cc1Cl [3-(2,4-Dichlorobenzoyloxy)-2-(2',6'-dichlorophenyl)indone] | 28/40 | 5 (100% mortality) | 5 (100% mortality) | – | – | – | –
Cc1ccc(C(=O)OC2=C(c3c(C)cc(C)cc3C)C(=O)c3ccccc32)c(C)c1 [3-(2,4-Dimethylbenzoyloxy)-2-(2',4',6'-trimethylphenyl)indone] | – | 1 | 5 (100% mortality) | 11/15 | – | – | –
Cc1ccc(C(=O)OC2=C(c3c(Cl)cccc3Cl)C(=O)c3ccccc32)c(C)c1 [3-(2,4-Dimethylbenzoyloxy)-2-(2',6'-dichlorophenyl)indone] | – | 1 | 3 (an approximately 50% mortality) | – | 5/20 | – | –
Cc1cc(C)c(C2=C(OC(=O)c3c(Cl)cccc3Cl)c3ccccc3C2=O)c(C)c1 [3-(2,6-Dichlorobenzoyloxy)-2-(2',4',6'-trimethylphenyl)indone] | 8/40 | 1 | 1 | – | – | – | –
O=C1C(c2c(Cl)cccc2Cl)=C(OC(=O)c2c(Cl)cccc2Cl)c2ccccc21 [3-(2,6-Dichlorobenzoyloxy)-2-(2',6'-dichlorophenyl)indone] | 8/40 | 1 | 1 | – | – | – | –
COc1cccc(OC)c1C(=O)OC1=C(c2c(C)cc(C)cc2C)C(=O)c2ccccc21 [3-(2,6-Dimethoxybenzoyloxy)-2-(2',4',6'-trimethylphenyl)indone] | – | 1 | 1 | – | 4/20 | – | –
COc1cccc(OC)c1C(=O)OC1=C(c2c(Cl)cccc2Cl)C(=O)c2ccccc21 [3-(2,6-Dimethoxybenzoyloxy)-2-(2',6'-dichlorophenyl)indone] | – | 1 | 1 | 12/15 | – | – | –
Cc1cc(C)c(C2=C(OC(=O)c3c(C)cccc3C)c3ccccc3C2=O)c(C)c1 [3-(2,6-Dimethylbenzoyloxy)-2-(2',4',6'-trimethylphenyl)indone] | – | 1 | 1 | – | 4/20 | – | –
Cc1cccc(C)c1C(=O)OC1=C(c2c(Cl)cccc2Cl)C(=O)c2ccccc21 [3-(2,6-Dimethylbenzoyloxy)-2-(2',6'-dichlorophenyl)indone] | – | 1 | 1 | – | 4/20 | About 20% | –
CCCCC(CC)C(=O)OC1=C(c2cccc3ccccc23)C(=O)c2ccccc21 (stereo not shown) [3-(2-Ethylhexanoyloxy)-2-(1-Naphthyl)indone] | – | 1 | 1 | – | 14/20 | – | –
CCCCC(CC)C(=O)OC1=C(c2ccccc2F)C(=O)c2ccccc21 (stereo not shown) [3-(2-Ethylhexanoyloxy)-2-(2'-fluorophenyl)indone] | – | 3 (an approximately 50% mortality) | 5 (100% mortality) | – | 4/20 | – | –
CCCCC(CC)C(=O)OC1=C(c2ccccc2OC)C(=O)c2ccccc21 (stereo not shown) [3-(2-Ethylhexanoyloxy)-2-(2'-methoxyphenyl-indone] | – | 1 | 1 | – | 4/20 | – | –
CCCCC(CC)C(=O)OC1=C(c2ccccc2C)C(=O)c2ccccc21 (stereo not shown) [3-(2-Ethylhexanoyloxy)-2-(2'-methylphenyl)indone] | – | 3 (an approximately 50% mortality) | 5 (100% mortality) | – | 4/20 | – | –
CCCCC(CC)C(=O)OC1=C(c2ccccc2)C(=O)c2ccccc21 (stereo not shown) [3-(2-Ethylhexanoyloxy)-2-phenylindone] | – | 1 | 1 | – | 4/20 | – | –
Cc1cc(C)c(C2=C(OC(=O)c3ccccc3C)c3ccccc3C2=O)c(C)c1 [3-(2-Methylbenzoyloxy)-2-(2',4',6'-trimethylphenyl)indone] | – | 5 (100% mortality) | 5 (100% mortality) | – | – | – | 19/30
Cc1ccccc1C(=O)OC1=C(c2c(Cl)cccc2Cl)C(=O)c2ccccc21 [3-(2-Methylbenzoyloxy)-2-(2',6'-dichlorophenyl)indone] | 31/40 | 5 (100% mortality) | 5 (100% mortality) | – | – | – | –
CCC(CC)C(=O)OC1=C(c2ccc(C(C)C)cc2)C(=O)c2ccccc21 [3-(2-ethylbutanoyloxy)-2-(4'-isopropylphenyl)indone] | – | 1 | 1 | – | 4/20 | – | –
Cc1cc(C)c(C2=C(OC(=O)c3ccc(Cl)c(Cl)c3)c3ccccc3C2=O)c(C)c1 [3-(3,4-Dichlorobenzoyloxy)-2-(2',4',6'-trimethylphenyl)indone] | 32/40 | 5 (100% mortality) | 5 (100% mortality) | – | – | – | –
O=C(OC1=C(c2c(Cl)cccc2Cl)C(=O)c2ccccc21)c1ccc(Cl)c(Cl)c1 [3-(3,4-Dichlorobenzoyloxy)-2-(2',6'-dichlorophenyl)indone] | 29/40 | 5 (100% mortality) | 5 (100% mortality) | – | – | – | –
Cc1cc(C)c(C2=C(OC(=O)c3cc(Cl)cc(Cl)c3)c3ccccc3C2=O)c(C)c1 [3-(3,5-Dichlorobenzoyloxy)-2-(2',4',6'-trimethylphenyl)indone] | – | 5 (100% mortality) | 5 (100% mortality) | – | – | – | 23/30
O=C(OC1=C(c2c(Cl)cccc2Cl)C(=O)c2ccccc21)c1cc(Cl)cc(Cl)c1 [3-(3,5-Dichlorobenzoyloxy)-2-(2',6'-dichlorophenyl)indone] | – | 5 (100% mortality) | 5 (100% mortality) | – | – | – | 24/30
COc1cccc(C(=O)OC2=C(c3c(C)cc(C)cc3C)C(=O)c3ccccc32)c1 [3-(3-Methoxybenzoyloxy)-2-(2',4',6'-trimethylphenyl)indone] | – | 5 (100% mortality) | 5 (100% mortality) | – | – | – | 25/30
COc1cccc(C(=O)OC2=C(c3c(Cl)cccc3Cl)C(=O)c3ccccc32)c1 [3-(3-Methoxybenzoyloxy)-2-(2',6'-dichlorophenyl)indone] | – | 5 (100% mortality) | 5 (100% mortality) | – | – | – | 23/30
Cc1cccc(C(=O)OC2=C(c3c(C)cc(C)cc3C)C(=O)c3ccccc32)c1 [3-(3-Methylbenzoyloxy)-2-(2',4',6'-trimethylphenyl)indone] | 26/40 | 5 (100% mortality) | 5 (100% mortality) | – | – | – | –
Cc1cccc(C(=O)OC2=C(c3c(Cl)cccc3Cl)C(=O)c3ccccc32)c1 [3-(3-Methylbenzoyloxy)-2-(2',6'-dichlorophenyl)indone] | 29/40 | 5 (100% mortality) | 5 (100% mortality) | – | – | – | –
Cc1cc(C)c(C2=C(OC(=O)c3cccc([N+](=O)[O-])c3)c3ccccc3C2=O)c(C)c1 [3-(3-Nitrobenzoyloxy)-2-(2',4',6'-trimethylphenyl)indone] | – | 5 (100% mortality) | 5 (100% mortality) | – | – | – | 28/30
O=C(OC1=C(c2c(Cl)cccc2Cl)C(=O)c2ccccc21)c1cccc([N+](=O)[O-])c1 [3-(3-Nitrobenzoyloxy)-2-(2',6'-dichlorophenyl)indone] | – | 5 (100% mortality) | 5 (100% mortality) | – | – | – | 26/30
